Patent US5817670A, “Naphthyridine derivatives and pharmaceutical compositions thereof” (Yamanouchi Pharmaceutical Co., Ltd., priority 1994, dated 1998)
Where a name gives a salt, the structure may show the parent alone.

Key:
type I phosphodiesterase = assay: Phosphodiesterase inhibition activity (in vitro), Type I; format: biochemical, rat
From the text: (§1) (A) In order to evaluate selectivity of the compounds of the present invention for type IV phosphodiesterase, types I, II, III and V phosphodiesterase isozymes were purified in the following manner.
(§2) 1) Solutions containing various phosphodiesterase (types I, II and III) isozymes were purified from rat heart muscle cells in the following manner. Under ether anesthesia, Wistar rat was subjected to thoracotomy to excise the heart. After removing blood by perfusion with physiological saline supplemented with heparin (1 unit/ml), the heart was finely chopped with scissors. This was suspended in buffer A (20 mM Bis-Tris, 5 mM dithioerythritol, 2 mM EGTA and 50 mM sodium acetate, pH 6.5) containing a protease inhibitor (50 μM phenyl-methyl-sulfonyl-fluoride, 5 μM pepstatin A, 40 μM leupeptin, 20 μM aprotinin or 2 mM benzamidine) and then the cells were disrupted using polytron and sonicator and subjected to ultracentrifugation (4° C., 100,000×g, 60 minutes) to give a soluble fraction.
(§3) 2) Solutions containing various phosphodiesterase isozymes were obtained from the thus obtained soluble fraction in the following manner. The thus, obtained soluble fraction was applied to a column of 1.6×10.0 cm packed with Q Sepharose which had been equilibrated with buffer A. Next, said column was washed with 300 ml of buffer A to remove non-absorbed protein. Phosphodiesterase was eluted with 200 ml of buffer A having 0.05 to 1.25M linear gradient of sodium acetate to collect about 40 fractions each containing 5.0 ml eluate. Each fraction was checked for cAMP- and cGMP-metabolizing phosphodiesterase activities. Of these fractions, a fraction having only cAMP-metabolizing activity and showing disappearance of the metabolizing activity by 0.1 μM cilostamide (a type III phosphodiesterase selective inhibitor) was used as the type III phosphodiesterase. […] These fractions were separately collected to be used as phosphodiesterase (types I, II and III) stock solutions for the examination of selectivity. p1 3) A solution containing type V phosphodiesterase was prepared from peripheral blood of a healthy person in the following manner. A 200 ml portion of physiological saline supplemented with dextran (3%) was added to 500 ml of heparinized peripheral blood and incubated at 37° C. for 40 minutes to effect precipitation of erythrocytes. The supernatant fluid after precipitation of erythrocytes was recovered and centrifuged once, and the resulting precipitate was suspended in buffer B (140 mM NaCl, 5 mM KCl, 5 mm glucose and 10 mM HEPES, pH 7.4), overlaid on a solution for density gradient centrifugation use (Ficoll solution) and then centrifuged at room temperature for 40 minutes at 450×g, thereby separating monocyte fraction and granulocyte fraction. The granulocyte fraction was washed once with buffer C (140 mM NaCl, 5 mM KCl, 1 mM CaCl2, 1 mM MgCl2, 5 mM glucose and 10 mM HEPES, pH 7.4) and suspended in buffer D (20 mM Bis-Tris, 5 mM dithioerythritol, 2 mM EGTA and 50 mM sodium acetate, pH 6.5) containing a protease inhibitor (40 μM leupeptin, 5 μM pepstatin A, 20 μM aprotinin, 50 μM phenyl-methyl-sulfonyl-fluoride or 2 mM benzamidine) and then the cells were disrupted using polytron and sonicator and subjected to ultracentrifugation (4° C., 100,000×g, 60 minutes) to give a soluble fraction.
(§4) (B) Inhibitory activities were measured using the thus obtained stock solutions of various phosphodiesterase isozymes.
(§5) 1) A predetermined amount of each compound to be tested was subjected to 10 minutes of reaction at 30° C. in a reaction mixture containing 40 mM Tris-HCl (pH 8.0), 5 mM MgCl2, 4 mM 2-mercaptoethanol, 10 μM rolipram (a type IV phosphodiesterase selective inhibitor), 1 μM cAMP, 10 nM ^3 H-cAMP (in the case of type V phosphodiesterase, 1 μM cAMP and 10 nM ^3 H-cAMP are replaced by 1 μM cGMP and 100 nM ^3 H-cGMP) and each of the isozyme stock solutions. […]

[1] = target: T1, type II phosphodiesterase (Rattus norvegicus, UniProt Q01062); assay: Phosphodiesterase inhibition activity (in vitro), Type II; format: biochemical; conditions: Type II phosphodiesterase column
T1 construct: purified from rat heart muscle cells; from tissue; host or cells: rat heart, soluble fraction, Q Sepharose
T1 sequence (Q01062 1-928): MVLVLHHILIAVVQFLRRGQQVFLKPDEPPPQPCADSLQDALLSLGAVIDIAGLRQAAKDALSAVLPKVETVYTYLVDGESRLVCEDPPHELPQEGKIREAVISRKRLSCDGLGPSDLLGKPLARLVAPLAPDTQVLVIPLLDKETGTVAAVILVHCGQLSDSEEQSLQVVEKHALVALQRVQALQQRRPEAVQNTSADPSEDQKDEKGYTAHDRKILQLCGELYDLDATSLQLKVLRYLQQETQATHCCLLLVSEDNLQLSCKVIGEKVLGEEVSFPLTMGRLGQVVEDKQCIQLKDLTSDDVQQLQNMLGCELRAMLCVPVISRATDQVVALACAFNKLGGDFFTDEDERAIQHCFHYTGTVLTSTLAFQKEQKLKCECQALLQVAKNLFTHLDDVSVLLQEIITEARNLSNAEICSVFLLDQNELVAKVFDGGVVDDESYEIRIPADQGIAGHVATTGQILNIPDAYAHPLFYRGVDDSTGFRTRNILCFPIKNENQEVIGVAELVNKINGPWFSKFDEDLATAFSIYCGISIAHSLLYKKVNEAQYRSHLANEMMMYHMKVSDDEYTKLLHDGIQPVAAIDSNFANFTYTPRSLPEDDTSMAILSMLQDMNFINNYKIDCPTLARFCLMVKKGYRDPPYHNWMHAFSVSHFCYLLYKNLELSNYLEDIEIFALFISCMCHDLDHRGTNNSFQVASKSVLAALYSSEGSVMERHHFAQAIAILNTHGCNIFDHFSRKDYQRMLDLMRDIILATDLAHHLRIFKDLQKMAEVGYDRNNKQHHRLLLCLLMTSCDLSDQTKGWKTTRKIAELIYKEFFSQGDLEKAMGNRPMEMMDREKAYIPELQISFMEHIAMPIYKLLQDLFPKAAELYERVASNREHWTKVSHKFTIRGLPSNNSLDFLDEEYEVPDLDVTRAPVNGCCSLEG
From the text: as §1, §2, §3, §4, §5

Compound	IC50 (type I phosphodiesterase)	IC50 [1]
CCc1cc(C)c2c(-c3cccc(Br)c3)cc(=O)n(CC)c2n1 [Example 31, 4-(3-bromophenyl)-1,7-diethyl-5-methyl-1,8-naphthyridin-2(1H)-one]	4.3 nM	> 30000 nM
CCc1cc(C)c2c(C3CCCCC3)cc(=O)n(CC)c2n1 [Example 49, 4-cyclohexyl-1,7-diethyl-5-methyl-1,8-naphthyridin-2(1H)-one]	33.7 nM	22800 nM
CCn1c(=O)cc(-c2cccc(Cl)c2)c2cccnc21 [Example 15, 4-(3-Chlorophenyl)-1-ethyl-1,8-naphthyridin-2(1H)-one]	33.8 nM	20800 nM
CCc1cc(C)c2c(-c3cccc(Cl)c3)cc(=O)n(C)c2n1 [Example 27, 4-(3-Chlorophenyl)-7-ethyl-1,5-dimethyl-1,8-naphthyridin-2(1H)-one]	21.3 nM	25600 nM
CCCn1c(=O)cc(-c2cccc(Br)c2)c2c(C)cc(CC)nc21 [Example 33, 4-(3-Bromophenyl)-7-ethyl-5-methyl-1-propyl-1,8-naphthyridin-2(1H)-one]	14.3 nM	35400 nM
CCn1c(=O)cc(-c2cccc(Cl)c2)c2c(C)cc(C)nc21 [Example 29, 4-(3-Chlorophenyl)-1-ethyl-5,7-dimethyl-1,8-naphthyridin-2(1H)-one]	11.6 nM	15500 nM
CCn1c(=O)cc(-c2ccccc2)c2c(C)cc(C)nc21 [Example 38, 1-Ethyl-5,7-dimethyl-4-phenyl-1,8-naphthyridin-2(1H)-one]	12.4 nM	26100 nM
CCn1c(=O)cc(-c2cccc(Br)c2)c2c(C)cc(C)nc21 [Example 30, 4-(3-Bromophenyl)-1-ethyl-5,7-dimethyl-1,8-naphthyridin-2(1H)-one]	9.9 nM	10500 nM
CCc1cc(C)c2c(-c3cccc(Cl)c3)cc(=S)n(C)c2n1 [Example 43, 4-(3-chlorophenyl)-7-ethyl-1,5-dimethyl-1,8-naphthyridine-2(1H)-thione]	16 nM	> 30000 nM
CCc1cc(C)c2c(-c3cccc(Cl)c3)cc(=O)n(C3CC3)c2n1 [Example 35, 4-(3-Chlorophenyl)-1-cyclopropyl-7-ethyl-5-methyl-1,8-naphthyridin-2(1H)-on]	24.2 nM	22300 nM
Cc1cc(C)c2c(-c3cccc(Cl)c3)cc(=O)n(C)c2n1 [Example 24, 4-(3-chlorophenyl)-1,5,7-trimethyl-1,8-naphthyridin-2(1H)-one]	41.9 nM	51800 nM
CCc1cc(C)c2c(-c3ccccc3)cc(=O)n(CC)c2n1 [Example 40, 1,7-Diethyl-5-methyl-4-phenyl-1,8-naphthyridin-2(1H)-one]	12.9 nM	20500 nM
CCn1c(=O)cc(C2CCCCC2)c2cccnc21 [Example 46, 4-cyclohexyl-1-ethyl-1,8-naphthyridin-2(1H)-one 0.45 hydrochloride 0.25 hydrate]	38.9 nM	> 30000 nM
CCc1cc(C)c2c(-c3ccccc3)cc(=O)n(C)c2n1 [Example 26, 7-Ethyl-1,5-dimethyl-4-phenyl-1,8-naphthyridin-2(1H)-one]	23.4 nM	30000 nM
